Experiments:
[1] = system: differentiated N1E-115 cells; assay: FRAP of mCherry-Tau (Tau-MT interaction); format: cell-based, mouse
Experimental: Cell culture—Mouse neuroblastoma NIE-115 cells were maintained in Dulbecco's modified Eagle's medium, 10% fetal bovine serum, 2 mM glutamine and 100 U ml—1 penicillin, […] ml—1 streptomycin (Biological Industries, Beit Haemek, Israel). The cells were incubated in 95% air/5% CO2 in a humidified incubator at 37° C.
Cell differentiation and co-transfection of overexpression plasmids—Cultured NIE-115 cells were plated on 35 mm dishes (81156, 60μ-Dish, Ibidi, Martinsried, Germany) at a concentration of 1.25×10^4 cells per dish and then were differentiated with reduced fetal bovine serum (2%) and DMSO (1.25%) containing medium for 5 days before transfection. 48 hrs before experiments N1E-115 cells were co-transfected with 1 μg EB3-RFP or mCherry-Tau (3R) plasmid with or without 2 μg of plasmids, coding to GFP conjugated to full-length human ADNP, or ADNP carried mutations. 1:3 ratios between total amount of transfected DNA and transfection reagent were used according to manufacture guidance (Lipofectamine2000, Thermo Fisher Scientific, Waltham, MA, USA) in all subsequent experiments.
Fluorescence recovery after photobleaching (FRAP)—Differentiated NIE-115 cells were transfected with mCherry-Tau with or without GFP-conjugated to full-length ADNP or mutated ADNP, and imaged 48 hrs after transfection. An ROI for photobleaching was drowned in the proximal cell branches. mCherry-Tau was bleached with a […], and fluorescence recovery was collected within wavelengths of 610-650 nm. 80 images were taken every 0.74 sec immediately after bleaching. After FRAP imaging all samples were also treated with NAP in final concentrations of 10^−12 M, and after 4 hrs time-lapse imaging was done again under the same conditions. FRAP imaging for assessment difference between NAP and SKIP (SEQ ID NO: 21) activity was performed after an hour of ZnCl2 treatment (400 μM final concentration; Sigma, Rehovot, Israel) with or without NAP/SKIP (10^−12 M final concentration). Fluorescence signals were quantified with Fiji, obtained data were normalized with easyFRAP [82, 83] and FRAP recovery curves were fitted by a one-phase exponential association function by GraphPad Prism6 (GraphPad Software, Inc., La Jolla, CA, USA) while samples with R^2<0.9 were excluded.
Next, the effect of full-length/truncated ADNP forms with or without NAP treatment on Tau-MT interaction was examined by fluorescence recovery after photobleaching (FRAP) (FIGS. 8A-C). FRAP was performed with mCherry-tagged Tau protein (FIG. 8A). […] Therefore, the immobile mCherry-Tau fraction reflects the rate of Tau association with MTs.

[2] = system: Tyr mice; assay: Behavioral assessments (odor discrimination and others); format: in vivo, mouse; parameters: key to NAP efficacy: cognitive impairments, behavioral deficits: corrections by NAP treatment (+)
Experimental: Animals—Animals were housed under a 12-hour light/dark cycle, with food and water ad-libitum. Mouse pups were subcutaneously administrated with NAP [having an amino acid sequence NAPVSIPQ (SEQ ID NO: 2), 25 μg NAP/1 ml saline] as described (8, 12). At 21 days of age mice were administered daily intranasal NAP in vehicle solution (“DD”—7.5 mg/ml of NaCl, 1.7 mg/ml of citric acid, 3 mg/ml of disodium phosphate dihydrate, and 0.2 mg/ml of 50% benzalkonium chloride solution) (0.5 μg NAP/5p1 DD) (8, 9, 12, and U.S. Pat. No. 10,912,819 to Gozes). These mice continued to behavioral analysis as described hereinbelow. The noninvasive intranasal route was chosen as these experiments required daily handling and administration. Age (weeks) of mice during behavioral experiments (mean±SEM) was as follows: Catwalk-9.23±0.15, grooming-10±0.15, social approach-10.5±0.12, odor-discrimination-12.12±0.13, hanging-wire-13±0.14, hotplate-13.18±0.13. Group size was determined following previous experiments (12). Pups were randomly allocated to either the NAP or DD group according to sex and genotype. […]
Novel object recognition: Briefly, the open field test was used for the first day of habituation since both tests are conducted in the same arena. […] The time spent sniffing/touching each object was measured using the EthoVision XT video tracking system and software (Noldus Inc. Leesburg, VA). Data were analyzed using the discrimination capacity formula: D2=(b−a)/(a+b), where ‘a’ designated the time of exploration of the familiar object and ‘b’ designated the time of exploration of the novel object.
Social approach: A plexiglas box was divided into three adjacent chambers, each 20 cm (length)×40.5 cm (width)×22 cm (height), separated by two removable doors. […] The next day, each subject mouse was tested in an experiment with three phases, (measured with a simple timer): I and II (5 minutes long), the habituation phases (ensuring no bias), and III (10 minutes long), the experimental phase. […]

## CC[C@H](C)[C@H](NC(=O)[C@H](CO)NC(=O)[C@@H](NC(=O)[C@@H]1CCCN1C(=O)[C@H](C)NC(=O)[C@@H](N)CC(N)=O)C(C)C)C(=O)N1CCC[C@H]1C(=O)N[C@@H](CCC(N)=O)C(=O)O [NAP, NAPVSIPQ]
[1]; cells expressing ADNP p.Glu830synfs*83, 10^−12 M, 4 hrs
  Tau-MT interaction (immobile mCherry-Tau fraction): significantly increased
[1]; cells expressing ADNP p.Lys408Valfs*31 SDM, 10^−12 M, 4 hrs
  Tau-MT interaction (Tau immobile fraction): prevented by NAP treatment
[1]; cells expressing ADNP p.Ser404*, 10^−12 M, 4 hrs
  Tau-MT interaction (immobile mCherry-Tau fraction): significantly increased
[1]; zinc 400 μM, 1 h, together with peptide 10^−12 M
  Tau immobile fraction under zinc: excessive impact
[2]; Tyr mice, daily intranasal NAP, data not shown
  Odor discrimination: NAP reversal in females
[2]; Tyr mouse (odor), first symbol of cell
  NAP efficacy: cognitive impairments, behavioral deficits: +(odor)/+(8)
[2]; WT mice, data not shown
  Behavioral, motor, social and sensory traits: varied minor effects

Reference: patent publication US20250032580A1, “USE OF ADNF POLYPEPTIDES IN THERAPY” (RAMOT AT TEL-AVIV UNIVERSITY LTD., priority 2021, published 2025)
